Assay results: patent publication US9447062B2, “Manumycin-type metabolite called Colabomycin E which inhibits caspase 1 and creation of interleukins, strain produces the Colabomycin E and a method of a production of the Colabomycin E” (BIOLOGY CENTRE AS CR, v. v. i., priority 2014, dated 2016)

Key:
[1] = tested on: IL-8 production in THP-1 cells; assay: IL-8 production in THP-1 cells stimulated with TNFα; format: cell-based, human; details: 0.5 μM
Description: (§1) Antibacterial activity of colabomycin E was tested by disc diffusion method. The strains were cultivated on MH agar plates at 36° C., aerobically for 18 hrs. For streptococci the media was supplemented with 5% sheep blood and the bacteria were cultivated aerobically for 20 hrs in 5% CO2. Colabomycin E samples dissolved in dioxane were applied to standard 6 mm discs; therefore zone diameters below 7 mm indicate no growth inhibition. The anti-inflammatory effect of colabomycin E was assayed on the TNFα-stimulated human monocyte/macrophage cell line THP-1. The cells were cultured in RPMI-1640 medium, supplemented with 10% heat inactivated fetal calf serum (FCS), L-glutamine, penicillin and streptomycin. Cells were seeded into 6-well tissue culture plates at a density of 2×10^6 cells per 2 ml per well and cultured under a 5% CO2 atmosphere at 37° C. THP-1 cells were stimulated with TNFα (50 ng/ml) under serum free conditions in the presence of colabomycin or manumycin A.

[2] = tested on: IL-18 production in THP-1 cells; assay: IL-18 production in THP-1 cells stimulated with TNFα; format: cell-based, human; details: 0.5 μM
Description: as §1

[3] = tested on: IL-6 production in THP-1 cells; assay: IL-6 production in THP-1 cells stimulated with TNFα; format: cell-based, human; details: 0.5 μM
Description: as §1

[4] = tested on: IL-1β release from THP-1 cells (caspase 1); assay: IL-1β release from TNFα-stimulated THP-1 cells; format: cell-based, human; details: for concentration at which the dose curve reached an inhibitory plateau (IL-1β release) / concentration from which IL-1β release is significantly inhibited: TNFα 50 ng/ml
Description: as §1
Unstimulated cells were used as controls. IL-1β release was measured through flow cytometry in culture supernatants by Fluorokine MAP human base kit A using the Luminex^100 System. In the first step, 50 μl of the samples/standards were incubated with 50 μl of microparticles for 3 hours at RT on a horizontal orbital microplate shaker. After washing the unbound substances, 50 μl of the secondary antibodies conjugated with biotin was added to each well and incubated the samples/standards for another 1 hour. After the incubation, the unbound secondary antibodies were washed and 50 μl of the Streptavidin-PE was added. After the 30 minutes of incubation, the samples/standards were washed and resuspended the microparticles in 100 μl of wash buffer. Samples/standards were read using a Luminex analyzer.

[5] = tested on: human leukemic Jurkat cells; assay: Pro-apoptotic features, Annexin V-FITC flow cytometry; format: cell-based; details: 4 hours
Description: Proapoptotic features were assayed using human Jurkat cells. The cells were cultivated in RPMI medium supplemented with 10% FBS and antibiotics. Just before experiments cells were plated into the fresh medium at 4×10^5 cells/ml in 24-well cultivation plates. They were treated with increasing concentrations of manumycin A (positive control) and colabomycin E for 4 hours. Cells were then harvested by centrifugation and apoptotic cells were labeled by Annexin V-FITC. The stained cells were subsequently analyzed by flow cytometry analysis in a Guava EasyCyte flow cytometer and the obtained data were evaluated using FlowJo software.)

[6] = tested on: Gram^+ bacteria, mainly staphylococci and streptococci; assay: Antibacterial activity, disc diffusion method; format: cell-based
Description: (§2) FIG. 10: Antibacterial features of colabomycin E—disc diffusion method. Colabomycin E samples were applied to standard 6 mm discs; therefore the zone diameters bellow 7 mm mean no growth inhibition. The strains kindly provided by the Czech National Collection of Type Cultures.
as §1

[7] = tested on: Gram^−; assay: Antibacterial activity, disc diffusion method; format: cell-based
Description: as §2, §1

## Colabomycin E
[1]
  IL-8 production: inhibit
[2]
  IL-18 production: inhibit
[3]
  IL-6 production: inhibit
[4]
  IL-1β release from THP-1 cells: significantly inhibited
  concentration at which the dose curve reached an inhibitory plateau (IL-1β release): 0.5 µM
  concentration from which IL-1β release is significantly inhibited: 0.25 µM
[5]; 5 μM
  pro-apoptotic features: weak pro-apoptotic features
[5]
  pro-apoptotic effect relative to manumycin A: substantially weaker
[6]
  anti-bacterial effects (overall): quite mild
[6]; in higher concentrations
  growth of Gram+ bacteria: suppresses growth
[7]
  effect on Gram− bacteria: no effect

## CCCC[C@@H](C)/C=C(C)/C=C(\C)C(=O)NC1=C[C@@](O)(/C=C/C=C/C=C/C(=O)NC2=C(O)CCC2=O)[C@@H]2O[C@@H]2C1=O [manumycin A, reference compound]
[4]
  concentration at which the dose curve reached an inhibitory plateau (IL-1β release): 0.5 µM
  concentration from which IL-1β release is significantly inhibited: 0.25 µM
